We go through four compounds from patent US20170252278A1, “INHIBITION OF MATURATION OF DENTAL BIOFILM AND CARIOGENIC PROPERTIES” (KONINKLIJKE PHILIPS N.V., priority 2014, published 2017).

What all share (type): cell-based
Test [1] relates to in vitro oral plaque biofilms. As to the kind of experiment: In vitro oral plaque biofilm formation in the Amsterdam Active Attachment Model, CFU determination. The note with it: for effect on in vitro oral plaque biofilm formation: 10 μM, difference less than one log, not considered biologically relevant. As to the method:
Stimulated saliva, used as inoculum, was collected on ice from ten donors. Saliva was donated 24 h after last brushing. The saliva was diluted 2-fold with 60% sterile glycerol, aliquoted and stored at −80° C. Before use, a pooled sample was prepared by mixing 200 μl of thawed saliva of each donor and vortexing for 30 seconds. In vitro oral plaque biofilms were inoculated 1:50 with pooled saliva.
In vitro oral plaque biofilms were grown in the Amsterdam Active Attachment Model (AAA-model, Exterkate et al. (2010)), assembled with glass coverslips (diameter 12 mm; Menzel, Braunschweig, Germany). The model was inoculated for 8 h with pooled saliva in buffered semi-defined McBain medium (2.5 g/l mucin (Sigma, St Louis, Mo.), 2.0 g/l Bacto peptone (Difco, Detroit, Mich.), 2.0 g/l Trypticase peptone (BBL, Cockeysville, Md.), 1.0 g/l yeast extract (BD Diagnostic Systems, Sparks, Md.), 0.35 g/l NaCl, 0.2 g/l KCl, 0.2 g/l CaCl2, 1 mg/l hemin (Sigma, St. Louis, Mo., USA), and 2 mg/l vitamin K1 (McBain et al. (2005)), with 50 mmol/1 PIPES at pH 7.0), with 0.2% sucrose.
In vitro oral plaque biofilms were grown in the AAA-model for 48-96 h in the presence of the compounds tested. The model was inoculated with saliva and incubated anaerobically at 37° C. for 8 hours to allow microbes to attach to the glass coverslips. After 8 hours of attachment, the inoculation medium was refreshed and in vitro oral plaque biofilms were grown for 16 hours. This refreshment routine was repeated daily until the day of harvesting.
In vitro oral plaque biofilms were harvested by transferring the glass coverslips into 2 ml phosphate buffered saline (PBS). The biofilms were dispersed using a Vibracell VCX130 sonicator with a maximum of 130 Watts and 20 kHz (Sonics & Materials, Newtown, USA). Bio films were sonicated on ice for 1 minute with a pulse rate of 50% and pulses of 1 second. Vibration amplitude was set to 40%.
To estimate the amount of in vitro oral plaque biofilm formation, total anaerobic colony forming units were determined. Briefly, serial dilutions of the dispersed bio films were made and plated on tryptic soy agar blood plates. Plates were subsequently incubated anaerobically for 96 h at 37° C. and colony forming units were determined by counting the number of colonies for each dilution.

Test [2] has as its system in vitro oral plaque biofilms. The experiment in a line: Lactic acid production assay of in vitro oral plaque biofilms. The note with it: for reduction of lactate production / lactic acid production after 96 h of growth: 10 μM; for total lactic acid production per biofilm (FIG. 2): 100 μM, biofilms grown 48 h, 3 h in BPW with 0.2% sucrose. The method, then:
All compounds tested of Table 1 were obtained from Sigma Aldrich. All compounds of Table 2, except 3-oxo-N(2oxocyclohexyl)dodecanamide, were kindly provided by M. Meijler, University of the Negev, Israel. The compounds were dissolved in DMSO and stored at −20 C. The compounds were continuously present at the indicated concentrations during biofilm growth, but not during further phenotypic analysis, i.e. lactate production.
To estimate the cariogenic phenotype, lactic acid production of the in vitro oral plaque biofilms was determined prior to harvesting (Exerkate et al 2010). In short, the biofilms on coverslips were placed in a 24-well plate containing 1.5 ml of BPW with 0.2% sucrose. Lactic acid formation was allowed for 3 hr at 37° C. under anaerobic conditions. The total amount of lactic acid produced in this period was analyzed using a colorimetric assay described previously (van Loveren et al. (2000)) and expressed as mM lactic acid, and as μM lactic acid per 1×10^6 CFU.
Biofilms were grown for 48 h in buffered McBain medium supplemented with 0.2% sucrose in the presence of 100 μM of one of the compounds. Medium was refreshed twice every day. […]

For test [3], the system named is in vitro oral plaque biofilms. The experiment in a line: Microbial composition of biofilms by 16S rDNA sequencing. The note with it: for shift in composition (Streptococcus down, Veillonella and Actinobacillus up) versus control: 10 μM; for Actinobacillus, share of biofilm composition / Actinomyces, share of biofilm composition / Campylobacter, share of biofilm composition / Fusobacterium, share of biofilm composition / Granulicatella, share of biofilm composition / Haemophilus, share of biofilm composition / Megasphaera, share of biofilm composition / Neisseria, share of biofilm composition / Other taxa, share of biofilm composition / Porphyromonas, share of biofilm composition / Prevotella, share of biofilm composition / Rothia, share of biofilm composition / Solobacterium, share of biofilm composition / Streptococcus, share of biofilm composition / Unclass. Pasteurellaceae, share of biofilm composition / Veillonella, share of biofilm composition: 3-Oxo-N 100 μM, furanones 10 μM. The method, then: DNA was isolated using phenol bead-beating followed by Agowa isolation, following the manufacturers instructions (LGC Genomics, Mag mini kit). Briefly, cells were mechanically disrupted four times at 1200 rpm for two minutes in addition of Tris-saturated Phenol, pH8, 0.1 mm zirconium beads and Mag lysis buffer. The DNA-containing phase was mixed with binding buffer and magnetic beads. DNA concentration was estimated by determining the absorbance at 260 nm using the nanodrop (Isogen, ND-1000).
PCR was performed in a final volume of 25 μl containing 1 μl of each primer ([…]), 1 μl dNTP (10 mM), 2.5 μl 10× DreamTaq Buffer including MgCl2 (Thermo Scientific), 0.2 μl DreamTaq DNA Polymerase (5 u/μ1, Thermo Scientific) and 50 ng of DNA. Initial denaturation was performed at 94° C. for 4 min, followed by 35 cycles of denaturation at 94° C. for 30 s, 54° C. annealing for 1 min, 72° C. for 1 min primer extension and a final extension at 72° C. for 5 min. Product formation was confirmed by electrophoresis of 5 μl on a 1% (w/v) agarose gel (Sphearo Q, Leiden, The Netherlands) stained with ethidium bromide.
These samples were analyzed by 16S rDNA Illumina sequencing at TNO Zeist (Netherlands).
Table 3. Microbial composition of biofilms grown for 48 (Table 3A) or 96 h (Table 3B) in the presence of different QS inhibitors. Composition was determined by 16S rDNA sequencing. The composition of the original inoculum used for all biofilms was also determined. “Unclass.” means: unclassified.

`O=C1C=C(Br)/C(=C/Br)O1` [Furanone C30, (Z-)-4-Bromo-5-(bromomethylene)-2(5H)-furanone]: the “effect on in vitro oral plaque biofilm formation” value in test [1] is “slightly effect”. Also, in test [2], the “reduction of lactate production” value is reported as “not observed” and the “lactic acid production after 96 h of growth” value is “up-regulate”. In test [3] (48 h), the “shift in composition (Streptococcus down, Veillonella and Actinobacillus up) versus control” value is recorded as “absent or even inversed”; the “Actinobacillus, share of biofilm composition” value (shortened to “Actinobacillus, share”) was 4.9%; the “Actinomyces, share of biofilm composition” value (“Actinomyces, share” for short) stood at 0.1%; the “Campylobacter, share of biofilm composition” value (“Campylobacter, share” for short) is recorded as 0.0%. In test [3] (48 h), the “Fusobacterium, share of biofilm composition” value (shortened to “Fusobacterium, share”) amounted to 0.0%; the “Granulicatella, share of biofilm composition” value (“Granulicatella, share” below) is recorded as 0.0%; the “Haemophilus, share of biofilm composition” value (shortened to “Haemophilus, share”) stood at 0.0%; the “Megasphaera, share of biofilm composition” value (from here on “Megasphaera, share”) came out at 0.0%. Also, in test [3] (48 h), the “Neisseria, share of biofilm composition” value was 0.0%; the “Other taxa, share of biofilm composition” value is 0.0%; the “Porphyromonas, share of biofilm composition” value (“Porphyromonas, share” for short) is reported as 0.0%; the “Prevotella, share of biofilm composition” value is given as 0.0%. For the same compound, in test [3] (48 h), the “Rothia, share of biofilm composition” value stood at 0.0%; the “Solobacterium, share of biofilm composition” value (shortened to “Solobacterium, share”) was 0.1%; the “Streptococcus, share of biofilm composition” value (“Streptococcus, share” below) is on record as 66.2%; the “Unclass. Pasteurellaceae, share of biofilm composition” value (from here on “Unclass. Pasteurellaceae, share”) is on record as 0.0%. In addition, in test [3] (48 h), the “Veillonella, share of biofilm composition” value (from here on “Veillonella, share”) was 28.6%. Moreover, in test [3] (96 h), the “Actinobacillus, share” value stood at 4.5%; the “Actinomyces, share” value came out at 0.3%; the “Campylobacter, share” value was 0.0%; the “Fusobacterium, share” value is reported as 0.0%. Moreover, in test [3] (96 h), the “Granulicatella, share” value was 0.3%; the “Haemophilus, share” value amounted to 0.0%; the “Megasphaera, share” value is 0.0%; the “Neisseria, share of biofilm composition” value was determined as 0.0%. In test [3] (96 h), the “Other taxa, share of biofilm composition” value is listed as 0.1%; the “Porphyromonas, share” value turned out to be 0.0%; the “Prevotella, share of biofilm composition” value worked out at 0.0%; the “Rothia, share of biofilm composition” value was determined as 0.0%. For the same compound, in test [3] (96 h), the “Solobacterium, share” value was found to be 0.8%; the “Streptococcus, share” value came to 34.4%; the “Unclass. Pasteurellaceae, share” value is reported as 0.0%; the “Veillonella, share” value is 59.6%.
Consider `CCCCCCCCCCCC(=O)N[C@H]1CCOC1=O` [C12-HSL, N-[(3S)-tetrahydro-2-oxo-3-furanyl]-dodecanamide], for which the “total lactic acid production per biofilm (FIG. 2)” value in test [2] is given as “no effect”.
Consider `O=C1OCC(Br)=C1Br` [3,4-Di-bromo, 3,4-Dibromo-2(5H)-furanone], for which the “effect on in vitro oral plaque biofilm formation” value in test [1] is on record as “slightly effect”. In test [2], the “reduction of lactate production” value is “not observed” and the “lactic acid production after 96 h of growth” value is on record as “up-regulate”. Besides, in test [3] (48 h), the “shift in composition (Streptococcus down, Veillonella and Actinobacillus up) versus control” value is given as “absent or even inversed”; the “Actinobacillus, share” value worked out at 3.7%; the “Actinomyces, share” value came to 0.0%; the “Campylobacter, share” value turned out to be 0.2%. In test [3] (48 h), the “Fusobacterium, share” value was 0.0%; the “Granulicatella, share” value is 0.1%; the “Haemophilus, share” value worked out at 0.0%; the “Megasphaera, share” value is given as 0.0%. For the same compound, in test [3] (48 h), the “Neisseria, share of biofilm composition” value came to 0.0%; the “Other taxa, share of biofilm composition” value was 0.1%; the “Porphyromonas, share” value amounted to 0.0%; the “Prevotella, share of biofilm composition” value came out at 0.0%. Further, in test [3] (48 h), the “Rothia, share of biofilm composition” value is reported as 0.0%; the “Solobacterium, share” value is recorded as 0.1%; the “Streptococcus, share” value was determined as 60.8%; the “Unclass. Pasteurellaceae, share” value is given as 0.2%. Besides, the “Veillonella, share” value in test [3] (48 h) is 34.8%. Further, in test [3] (96 h), the “Actinobacillus, share” value stood at 3.4%; the “Actinomyces, share” value is given as 0.1%; the “Campylobacter, share” value is reported as 1.6%; the “Fusobacterium, share” value is 0.0%. Also, in test [3] (96 h), the “Granulicatella, share” value turned out to be 0.2%; the “Haemophilus, share” value turned out to be 0.0%; the “Megasphaera, share” value is given as 0.0%; the “Neisseria, share of biofilm composition” value was 0.0%. In addition, in test [3] (96 h), the “Other taxa, share of biofilm composition” value turned out to be 0.7%; the “Porphyromonas, share” value was 0.0%; the “Prevotella, share of biofilm composition” value was 2.3%; the “Rothia, share of biofilm composition” value is 0.0%. In addition, in test [3] (96 h), the “Solobacterium, share” value is 0.7%; the “Streptococcus, share” value came out at 38.0%; the “Unclass. Pasteurellaceae, share” value is on record as 0.0%; the “Veillonella, share” value worked out at 52.9%.
Take `CCCCCCCCCCCCCC(=O)N[C@H]1CCOC1=O` [HSL-C14]: in test [1] (Example 2, 100 μM, 48 h), the “biofilm production (visible amount of biofilm)” value was “toxic to the formation of biofilm”. Also, the “total lactic acid production per biofilm (FIG. 2)” value in test [2] is given as “reduced lactic acid production”.
